Laboratory results reported in publication PMC8305652, “Copper(II) Complexes Containing Natural Flavonoid Pomiferin Show Considerable In Vitro Cytotoxicity and Anti-inflammatory Effects” (International Journal of Molecular Sciences, 2021).

Columns and labels:
[1] = tested on: THP-1 human monocytic leukemia cell line; assay: relative cell viability, WST-1; type: cell-based; conditions: 24 h, six independent experiments
Description: The THP-1 human monocytic leukemia cell line was purchased from the European Collection of Cell Cultures (ECACC, Salisbury, UK). Cells were cultured in an RPMI 1640 medium containing stabilized 2 mM L-glutamine (Biosera, Nuaille, France) supplemented with the mixture of antibiotics [100 U/mL penicillin and […] (Biosera, Nuaille, France)], and 10% foetal bovine serum (FBS) (HyClone, Marlborough, MA, USA). The cells were kept in an incubator at 37 °C in an atmosphere of air containing 5% CO2 and 100% humidity.
The relative cell viability of floating monocytes THP-1 were determined after 24 h incubation in a serum-free medium with compounds 1–5 dissolved in N,N-dimethylformamide (DMF) at increasing concentrations (20–0.125 µM) by the cell proliferation reagent WST-1 (Roche, Basel, Switzerland) according to the manufacturer’s manual, as we described previously. The IC50 values were calculated from resultant viability curves by four-parameter logistic (4PL) analysis.

[2] = tested on: A2780 cells; assay: cell cycle analysis by flow cytometry; type: cell-based, human; conditions: A2780, 15 µM, 24 h
Description: Human ovarian cancer cell line A2780 (Sigma, Darmstadt, Germany) were used for this study. Cells were cultivated at 37 °C under a 5% CO2 atmosphere in an RPMI 1640 medium (Sigma Aldrich, Darmstadt, Germany) supplemented with (the final concentrations in medium): L-glutamine (2 mM), fetal bovine serum (FBS, 10%) and PenStrep (5 U penicillin, 50 µg streptomycin/mL).
After 24 h, the cells were washed once with PBS (0.1 M, pH 7.4) and cell cycle analysis was performed according to the protocol of BD Cycletest^TM Plus DNA kit (Becton Dickinson, Franklin Lakes, NJ, USA). Measurements were performed using BD FACSVerse flow cytometer (Becton Dickinson, Franklin Lakes, NJ, USA) in 3 independent experiments, each done in duplicate, while at least 5 × 10^3 events were recorded for each sample.

[3] = tested on: pUC19 plasmid DNA; assay: nuclease-like activity, plasmid DNA cleavage; type: biochemical; conditions: for plasmid DNA nicked to OC-form: 10 µM; for cleavage of plasmid DNA: 300 µM; for DNA cleavage in the presence of ROS scavengers (KI, NaN3, DMSO): 0.66 mM H2O2, scavengers equimolar to complex; for effectivity of plasmid DNA cleavage with H2O2: order 2 ≈ 4 > 1
[4] = tested on: colorectal adenocarcinoma (Caco-2); assay: in vitro cytotoxicity, MTT assay; type: cell-based, human; conditions: at least three independent experiments
[5] = tested on: primary culture of human hepatocytes (Hep); assay: toxicity against primary culture of human hepatocytes; type: cell-based; conditions: tested range 0.1–100 μM
[6] = tested on: A2780 cells; assay: mitochondrial membrane potential, MITO-ID flow cytometry; type: cell-based, human; conditions: A2780, 15 µM, 24 h; compared with cisplatin
Description: After 24 h, the cells were washed once with PBS (0.1 M, pH 7.4), detached with trypsin (0.25% in ethylenediaminetetraacetic acid (EDTA), Sigma-Aldrich), and resuspended in 500 µL of culture medium. Then the staining was performed using MITO-ID® Membrane potential detection kit (Enzo Life Sciences, Farmingdale, NY, USA) according to the manufacturer’s protocol and samples were measured in three independent experiments, each time in duplicates on BD FACSVerse flow cytometer (Becton Dickinson, Franklin Lakes, NJ, USA), while at least 10^4 events were recorded for each sample.

[7] = tested on: A2780 cells; assay: Annexin V/propidium iodide cell death assay, flow cytometry; type: cell-based, human; conditions: 24 h; for Annexin V +/PI + cells (late apoptotic/secondary necrotic) / Annexin V +/PI − cells (early apoptotic): A2780, 15 µM, mean of three experiments
Description: Both methods were performed according to the manufacturers’ protocols with 1 modification in the caspase induction assay, which was the use of the CellEvent^TM Caspase-3/7 Green Detection Reagent only for detection of Caspase-3/7 activation. […] After 24 h, the cells were washed once with PBS (0.1 M, pH 7.4), detached with trypsin (0.25% in ethylenediaminetetraacetic acid (EDTA), Sigma-Aldrich), resuspended in 500 µL of the culture medium and divided into 2 separate tubes, the first for apoptosis assay and the second one for caspase activation analysis. After staining with appropriate dyes, samples were analyzed on a BD FACSVerse flow cytometer (Becton Dickinson, Franklin Lakes, NJ, USA) in 3 separate experiments, while at least 10^4 events were recorded for each sample prepared in duplicate.

[8] = tested on: TNF-α in differentiated THP-1 macrophages; assay: TNF-α secretion, ELISA; type: cell-based, human; conditions: 200 nM, 1 h pre-treatment, LPS 1 µg/mL, 24 h
Description: Differentiated THP-1 macrophages (see above) were pre-treated with either 200 nM solutions of the tested complexes, or 200 nM solution of prednisone dissolved in 0.1% DMF or the vehicle (0.1% (v/v) DMF solution) for 1 h, as described previously. The concentration of TNF-α was measured using a Human TNF-α ELISA Kit (Diaclone, Besançon, France), according to the manufacturer’s manual. Each experiment was conducted in triplicate.

[9] = tested on: lung adenocarcinoma (A549); assay: in vitro cytotoxicity, MTT assay; type: cell-based, human; conditions: at least three independent experiments
Description: (§1) The testing was performed on the following human cancer cell lines: breast adenocarcinoma (MCF-7), osteosarcoma (HOS), lung adenocarcinoma (A549), prostate adenocarcinoma (PC-3), ovarian carcinoma (A2780), cisplatin-resistant ovarian carcinoma (A2780R) and colorectal adenocarcinoma (Caco-2) obtained from ATCC collection of cell lines and cultivated according to producer’s instructions.

[10] = tested on: cisplatin-resistant ovarian carcinoma (A2780R); assay: in vitro cytotoxicity, MTT assay; type: cell-based, human; conditions: mean ± SD, at least three independent experiments
Description: as §1

[11] = tested on: NF-κB/AP-1 in THP-1-XBlue-MD2-CD14 cells; assay: LPS-stimulated NF-κB/AP-1 activity, SEAP reporter; type: cell-based, human; conditions: read 24 h after LPS; for inhibition of LPS-stimulated NF-κB/AP-1 activation: complexes applied at 200 nM and 50 nM, 1 h pre-treatment
Description: The activity of transcription factors NF-κB/AP-1 was evaluated using the THP-1-XBlue^TM-MD2-CD14 cell line [obtained from Invivogen (San Diego, CA, USA)], expressing an NF-κB/AP-1-inducible secreted embryonic alkaline phosphatase (SEAP) reporter gene, as was described previously. The complexes 1–5 were applied to the cells at the concentrations of 200 nM and 50 nM, pomiferin (at 200 nM), and a reference drug prednisone at 1 μM, respectively. Lipopolysaccharide (LPS) from E. coli 0111:B4 (Sigma-Aldrich) dissolved in PBS was used to trigger an inflammation-like reaction. The activity of the SEAP was determined by Quanti-Blue^TM reagent (Invivogen, San Diego, CA, USA) according to the manufacturer’s instructions 24 h after lipopolysaccharide stimulation. The activity of NF-κB/AP-1 was determined spectrophotometrically using the FLUOstar Omega microplate reader (BMG Labtech, Ortenberg, Germany) at 655 nm and compared with that of the vehicle.

[12] = tested on: osteosarcoma (HOS); assay: in vitro cytotoxicity, MTT assay; type: cell-based, human; conditions: mean ± SD, at least three independent experiments
[13] = water-containing medium (10% DMF), 37 °C, 1 h

Molecule	IC50 ([1]; serum-free medium)	plasmid DNA nicked to OC-form [3, 13]	cleavage of plasmid DNA [3, 13]	DNA cleavage in the presence of ROS scavengers (KI, NaN3, DMSO) [3]	effectivity of plasmid DNA cleavage with H2O2 ([3]; 0.66 mM H2O2)	IC50 ([4]; mean ± SD)	IC50 [5]	damage of mitochondrial function (membrane potential) [6]	Annexin V +/PI + cells (late apoptotic/secondary necrotic) [7]	secretion of TNF-α [8]	IC50 ([9]; mean ± SD)	IC50 [10]	inhibition of LPS-stimulated NF-κB/AP-1 activation [11]	IC50 [12]	effect on LPS-stimulated NF-κB/AP-1 activity at 50 nM [11]	Annexin V +/PI − cells (early apoptotic) [7]	further results
CC(C)=CCc1c2c(c3occ(-c4ccc(O)c(O)c4)c(=O)c3c1[O-])C=CC(C)(C)O2.CO.O=[N+]([O-])[O-].[Cu+2].c1ccc(-c2ccnc3c2ccc2c(-c4ccccc4)ccnc23)cc1 [Complex 4, (3-(3,4-dihydroxyphenyl)-8,8-dimethyl-6-(3-methylbut-2-en-1-yl)-4H,8H-benzo[1,2-b:3,4-b′]dipyran-4-one-5-olato-κ^2O4:O5)(4,7-diphenyl-1,10-phenanthroline–κ^2N:N)copper(II) nitrate methanol solvate]	3.3 ± 1.2 µM	ca. 30%	cleave the DNA completely to small fragments	not affected by the addition of the ROS scavengers	comparable with the effectivity of copper sulphate pentahydrate	22.9 ± 12.9 µM	> 100 µM	strong ability	93.3 ± 2.9%	did not affect the TNF-α synthesis	8.7 ± 0.8 µM	6.6 ± 2.3 µM	able to inhibit				cells in G0/G1 phase ([2]; control 58.4 ± 0.5%): 62.1 ± 1.2%
(3-(3,4-dihydroxyphenyl)-8,8-dimethyl-6-(3-methylbut-2-en-1-yl)-4H,8H-benzo[1,2-b:3,4-b′]dipyran-4-one-5-olato-κ^2O4:O5)(dipyrido[3,2-a:2′,3′-c]phenazine–κ^2N4:N5)copper(II) nitrate methanol solvate [Complex 5]	3.1 ± 1.1 µM						> 100 µM			decreased its production	3.1 ± 0.2 µM	2.2 ± 0.5 µM	able to inhibit	2.4 ± 0.9 µM	active		
CC(C)=CCc1c2c(c3occ(-c4ccc(O)c(O)c4)c(=O)c3c1O)C=CC(C)(C)O2 [pomiferin, 3-(3,4-dihydroxyphenyl)-5-hydroxy-8,8-dimethyl-6-(3-methylbut-2-ene-1-yl)-4H,8H-benzo[1,2-b:3,4-b′]dipyran-4-one]								strong ability	49.0 ± 1.9%						slightly increased	10.0 ± 0.1%	IC50 ([1]; Homo sapiens, THP-1, serum-free medium): > 10 µM; cells in the S phase of the cell cycle ([2]; untreated control 21.4 ± 0.8%): 26 ± 0.9%; lowering of the portion of OC-form formed after addition of hydrogen peroxide ([3]; 0.66 mM H2O2): ca. 20%; effect on supercoiled CCC-form of plasmid DNA [3, 13]: did not affect; IC50 ([4]; Homo sapiens, Caco-2, mean ± SD): 19.8 ± 2.4 µM; IC50 ([5]; Hepatocyte): > 50 µM; viability at 15 µM ([7]; Homo sapiens, A2780, 15 μM, Figure 3, one out of three independent experiments, read-out: Annexin - / PI - (viable cells)): 37.1%; IC50 ([12]; Homo sapiens): 20.7 ± 0.5 µM; IC50 ([9]; Homo sapiens, A549, mean ± SD): 21.2 ± 1.4 µM; IC50 ([10]; Homo sapiens): 4.3 ± 1.3 µM
CC(C)=CCc1c2c(c3occ(-c4ccc(O)c(O)c4)c(=O)c3c1[O-])C=CC(C)(C)O2.Cc1ccnc(-c2cc(C)ccn2)c1.O.O.O=[N+]([O-])[O-].[Cu+2] [Complex 2, (3-(3,4-dihydroxyphenyl)-8,8-dimethyl-6-(3-methylbut-2-en-1-yl)-4H,8H-benzo[1,2-b:3,4-b′]dipyran-4-one-5-olato-κ^2O4:O5)(4,4′-dimethyl-2,2′-bipyridine–κ^2N:N)copper(II) nitrate dihydrate]	7.9 ± 1.1 µM	ca. 30%	cleave the DNA completely to small fragments	not affected by the addition of the ROS scavengers	comparable with the effectivity of copper sulphate pentahydrate	5.1 ± 1.6 µM	> 100 µM	strong ability	19.8 ± 0.7%	decreased its production	20.9 ± 0.9 µM	5.3 ± 1.1 µM	able to inhibit	21.1 ± 1.6 µM		9.2 ± 0.8%	cells in G2/M phase ([2]; control 20.1 ± 0.4%): 21.9 ± 0.8%
